The numbers were not newly measured in article PMC5074076, “Novel minimal physiologically-based model for the prediction of passive tubular reabsorption and renal excretion clearance” (European Journal of Pharmaceutical Sciences, 2016), which cites them from elsewhere.

The conditions of the data set: healthy subjects; plasma and urine data from same subjects; normalised for subject weight and body surface area where necessary; ref Table S2.1; cited from earlier work.

In the case of `CCCC(=O)Nc1ccc(OCC(O)CNC(C)C)c(C(C)=O)c1` (centres unmarked) [Acebutolol], the “Overall weighted mean CLR” value is 222.8 mL/min.

As for `CCN(CC)CCNC(=O)c1ccc(NC(C)=O)cc1` [Acecainide], the “Overall weighted mean CLR” value was 226.7 mL/min.

As to `Nc1ncnc2c1ncn2CCOCP(=O)(O)O` [Adefovir], the “Overall weighted mean CLR” value was 200.4 mL/min.

On to `CN(C)CCc1c[nH]c2ccc(CS(=O)(=O)N3CCCC3)cc12` [Almotriptan], for which the “Overall weighted mean CLR” value was 399.5 mL/min.

Turning to `NC12CC3CC(CC(C3)C1)C2` [Amantadine], the “Overall weighted mean CLR” value was 219.2 mL/min.

As to `CC1(C)S[C@@H]2[C@H](NC(=O)[C@H](N)c3ccc(O)cc3)C(=O)N2[C@H]1C(=O)O` [Amoxicillin], the “Overall weighted mean CLR” value is 167.0 mL/min.

Turning to `CC1(C)S[C@@H]2[C@H](NC(=O)[C@H](NC(=O)c3cnc4cccnc4c3O)c3ccccc3)C(=O)N2[C@H]1C(=O)O` [Apalcillin], the “Overall weighted mean CLR” value is 29.0 mL/min.

Consider `CC1(C)S[C@@H]2[C@H](NC(=O)[C@H](NC(=O)N3CCNC3=O)c3ccccc3)C(=O)N2[C@H]1C(=O)O` [Azlocillin], for which the “Overall weighted mean CLR” value is 83.3 mL/min.

Turning to `CC1(C)S[C@@H]2[C@H](NC(=O)Cc3ccccc3)C(=O)N2[C@H]1C(=O)O` [Benzylpenicillin], the “Overall weighted mean CLR” value is 316.8 mL/min.

With `CC(C)NCC(O)COc1ccc(COCCOC(C)C)cc1` (centres unmarked) [Bisoprolol], the “Overall weighted mean CLR” value is 157.0 mL/min.

`CC1(C)S[C@@H]2[C@H](NC(=O)C(C(=O)O)c3ccccc3)C(=O)N2[C@H]1C(=O)O` (some centres unmarked) [Carbenicillin]: the “Overall weighted mean CLR” value is 127.0 mL/min.

With `Cn1nnnc1SCC1=C(C(=O)O)N2C(=O)[C@@H](NC(=O)[C@H](O)c3ccccc3)[C@H]2SC1` [Cefamandole], the “Overall weighted mean CLR” value was 162.3 mL/min.

As for `C=CC1=C(C(=O)O)N2C(=O)[C@@H](NC(=O)/C(=N\OCC(=O)O)c3csc(N)n3)[C@H]2SC1` [Cefixime], the “Overall weighted mean CLR” value was 32.5 mL/min.

For `CO[C@@]1(NC(=O)CSCC#N)C(=O)N2C(C(=O)O)=C(CSc3nnnn3C)CS[C@@H]21` [Cefmetazole], the “Overall weighted mean CLR” value is 110.2 mL/min.

With `CO/N=C(\C(=O)N[C@@H]1C(=O)N2C(C(=O)O)=C(CSc3nc(C)c(CC(=O)O)s3)CS[C@H]12)c1csc(N)n1` [Cefodizime], the “Overall weighted mean CLR” value was 29.1 mL/min.

Consider `O=C(O)C1=C(CSc2nnnn2CS(=O)(=O)O)CS[C@@H]2[C@H](NC(=O)[C@H](O)c3ccccc3)C(=O)N12` [Cefonicid], for which the “Overall weighted mean CLR” value is 18.3 mL/min.

As for `NCc1ccccc1CC(=O)N[C@@H]1C(=O)N2C(C(=O)O)=C(CSc3nnnn3CC(=O)O)CS[C@H]12` [Ceforanide], the “Overall weighted mean CLR” value was 46.8 mL/min.

As for `CO/N=C(\C(=O)N[C@@H]1C(=O)N2C(C(=O)O)=C(COC(C)=O)CS[C@H]12)c1csc(N)n1` [Cefotaxime], the “Overall weighted mean CLR” value is 119.7 mL/min.

Consider `CO[C@@]1(NC(=O)C2SC(=C(C(N)=O)C(=O)O)S2)C(=O)N2C(C(=O)O)=C(CSc3nnnn3C)CS[C@@H]21` (some centres unmarked) [Cefotetan], for which the “Overall weighted mean CLR” value is 23.9 mL/min.

With `CN(C)CCn1nnnc1SCC1=C(C(=O)O)N2C(=O)[C@@H](NC(=O)Cc3csc(N)n3)[C@H]2SC1` [Cefotiam], the “Overall weighted mean CLR” value is 193.7 mL/min.

Consider `CO/N=C(\C(=O)N[C@@H]1C(=O)N2C(C(=O)[O-])=C(C[n+]3cccc4c3CCC4)CS[C@H]12)c1csc(N)n1` [Cefpirome], for which the “Overall weighted mean CLR” value was 97.5 mL/min.

As to `CC(C)(O/N=C(\C(=O)N[C@@H]1C(=O)N2C(C(=O)[O-])=C(C[n+]3ccccc3)CS[C@H]12)c1csc(N)n1)C(=O)O` [Ceftazidime], the “Overall weighted mean CLR” value was 98.0 mL/min.

`CO/N=C(\C(=O)N[C@@H]1C(=O)N2C(C(=O)O)=CCS[C@H]12)c1csc(N)n1` [Ceftizoxime]: the “Overall weighted mean CLR” value was 102.2 mL/min.

For `CCN(CC)CCCC(C)Nc1ccnc2cc(Cl)ccc12` (centres unmarked) [Chloroquine], the “Overall weighted mean CLR” value was 167.2 mL/min.

For `NS(=O)(=O)c1cc(C2(O)NC(=O)c3ccccc32)ccc1Cl` (centres unmarked) [Chlorthalidone], the “Overall weighted mean CLR” value is 62.3 mL/min.

As for `CN/C(=N/CCSCc1nc[nH]c1C)NC#N` [Cimetidine], the “Overall weighted mean CLR” value was 417.0 mL/min.

As for `NC1CCN(c2c(F)cc3c(=O)c(C(=O)O)cn(C4CC4)c3c2Cl)C1` (centres unmarked) [Clinafloxacin], the “Overall weighted mean CLR” value is 191.0 mL/min.

On to `CNCCCN1c2ccccc2CCc2ccccc21` [Desipramine], for which the “Overall weighted mean CLR” value is 28.6 mL/min.

`C[C@@H](CN1CC(=O)NC(=O)C1)N1CC(=O)NC(=O)C1` [Dexrazoxane]: the “Overall weighted mean CLR” value was 133.3 mL/min.

As for `C[C@H]1O[C@@H](O[C@H]2[C@@H](O)C[C@H](O[C@H]3[C@@H](O)C[C@H](O[C@H]4CC[C@@]5(C)[C@H](CC[C@@H]6[C@@H]5C[C@@H](O)[C@]5(C)[C@@H](C7=CC(=O)OC7)CC[C@]65O)C4)O[C@@H]3C)O[C@@H]2C)C[C@H](O)[C@@H]1O` [Digoxin], the “Overall weighted mean CLR” value is 151.1 mL/min.

With `COc1ccc([C@@H]2Sc3ccccc3N(CCN(C)C)C(=O)[C@@H]2OC(C)=O)cc1` [Diltiazem], the “Overall weighted mean CLR” value was 48.0 mL/min.

In the case of `CCn1cc(C(=O)O)c(=O)c2cc(F)c(N3CCNCC3)nc21` [Enoxacin], the “Overall weighted mean CLR” value is 256.7 mL/min.

As for `CSc1ccc(C(=O)c2[nH]c(=O)[nH]c2C)cc1` [Enoximone], the “Overall weighted mean CLR” value is 3.4 mL/min.

As for `CCCn1c(=O)[nH]c(=O)c2[nH]cnc21` [Enprofylline], the “Overall weighted mean CLR” value was 272.6 mL/min.

As for `CN1CCN(c2c(F)cc3c(=O)c(C(=O)O)cn(CCF)c3c2F)CC1` [Fleroxacin], the “Overall weighted mean CLR” value is 67.5 mL/min.

Regarding `Cc1onc(-c2c(F)cccc2Cl)c1C(=O)N[C@@H]1C(=O)N2[C@@H]1SC(C)(C)[C@@H]2C(=O)O` [Flucloxacillin], the “Overall weighted mean CLR” value is 90.9 mL/min.

For the compound `CN[C@@H]1CCc2[nH]c3ccc(C(N)=O)cc3c2C1` [Frovatriptan], the “Overall weighted mean CLR” value is 73.5 mL/min.

As for `COc1ccc2c3c1O[C@H]1C[C@@H](O)C=C[C@@]31CCN(C)C2` [Galantamine], the “Overall weighted mean CLR” value is 57.7 mL/min.

Consider `C[C@H]1NCc2cc(-c3ccc4c(=O)c(C(=O)O)cn(C5CC5)c4c3OC(F)F)ccc21` [Garenoxacin], for which the “Overall weighted mean CLR” value was 41.8 mL/min.

In the case of `COc1c(N2CCNC(C)C2)c(F)cc2c(=O)c(C(=O)O)cn(C3CC3)c12` (centres unmarked) [Gatifloxacin], the “Overall weighted mean CLR” value is 168.4 mL/min.

As to `COc1cc2ncnc(Nc3ccc(F)c(Cl)c3)c2cc1OCCCN1CCOCC1` [Gefitinib], the “Overall weighted mean CLR” value was 8.6 mL/min.

As for `CO/N=C1\CN(c2nc3c(cc2F)c(=O)c(C(=O)O)cn3C2CC2)CC1CN` (centres unmarked) [Gemifloxacin], the “Overall weighted mean CLR” value was 176.8 mL/min.

Consider `Nc1nnc(-c2cccc(Cl)c2Cl)c(N)n1` [Lamotrigine], for which the “Overall weighted mean CLR” value was 2.5 mL/min.

Consider `Nc1cccc2c1CN(C1CCC(=O)NC1=O)C2=O` (centres unmarked) [Lenalidomide], for which the “Overall weighted mean CLR” value was 190.4 mL/min.

`C[C@H]1COc2c(N3CCN(C)CC3)c(F)cc3c(=O)c(C(=O)O)cn1c23` [Levofloxacin]: the “Overall weighted mean CLR” value is 116.9 mL/min.

As to `CCn1cc(C(=O)O)c(=O)c2cc(F)c(N3CCNC(C)C3)c(F)c21` (centres unmarked) [Lomefloxacin], the “Overall weighted mean CLR” value is 155.8 mL/min.

Turning to `O=C1Nc2ccc(Cl)cc2C(c2ccccc2Cl)=NC1O` (centres unmarked) [Lorazepam], the “Overall weighted mean CLR” value was 0.3 mL/min.

As for `CNC(C)Cc1ccc2c(c1)OCO2` (centres unmarked) [MDMA], the “Overall weighted mean CLR” value was 215.0 mL/min.

In the case of `CC12CC3CC(C)(C1)CC(N)(C3)C2` [Memantine], the “Overall weighted mean CLR” value was 117.1 mL/min.

Consider `O=S(=O)(O)CCS` [Mesna], for which the “Overall weighted mean CLR” value is 265.8 mL/min.

For the compound `CO[C@@]1(NC(=O)C(C(=O)O)c2ccc(O)cc2)C(=O)N2C(C(=O)O)=C(CSc3nnnn3C)CO[C@@H]21` (some centres unmarked) [Moxalactam], the “Overall weighted mean CLR” value is 69.5 mL/min.

Take `CCOc1ccc2ccccc2c1C(=O)N[C@@H]1C(=O)N2[C@@H]1SC(C)(C)[C@@H]2C(=O)O` [Nafcillin]: the “Overall weighted mean CLR” value was 138.4 mL/min.

Take `CC1COc2c(N3CCN(C)CC3)c(F)cc3c(=O)c(C(=O)O)cn1c23` (centres unmarked) [Ofloxacin]: the “Overall weighted mean CLR” value is 184.4 mL/min.

On to `CCCc1nc(C(C)(C)O)c(C(=O)O)n1Cc1ccc(-c2ccccc2-c2nnn[nH]2)cc1` [Olmesartan], for which the “Overall weighted mean CLR” value was 11.4 mL/min.

Consider `CCC(CC)O[C@@H]1C=C(C(=O)O)C[C@H](N)[C@H]1NC(C)=O` [Oseltamivir carboxylate], for which the “Overall weighted mean CLR” value was 231.7 mL/min.

With `Nc1nc2c(ncn2CCC(CO)CO)c(=O)[nH]1` [Penciclovir], the “Overall weighted mean CLR” value was 439.6 mL/min.

`Cc1cccc(C)c1NC(=O)CC12CCCN1CCC2` [Pilsicainide]: the “Overall weighted mean CLR” value is 234.7 mL/min.

For `CC(C)NCC(O)COc1cccc2[nH]ccc12` (centres unmarked) [Pindolol], the “Overall weighted mean CLR” value was 210.9 mL/min.

Regarding `CC[C@H](C)C(=O)O[C@H]1C[C@H](O)C=C2C=C[C@H](C)[C@H](CC[C@@H](O)C[C@@H](O)CC(=O)O)[C@H]21` [Pravastatin], the “Overall weighted mean CLR” value is 414.6 mL/min.

With `CC(CN1c2ccccc2Sc2ccccc21)N(C)C` (centres unmarked) [Promethazine], the “Overall weighted mean CLR” value is 5.9 mL/min.

In the case of `NC(=O)c1cnccn1` [Pyrazinamide], the “Overall weighted mean CLR” value is 2.0 mL/min.

For the compound `Cc1nnc(C(=O)NC(C)(C)c2nc(C(=O)NCc3ccc(F)cc3)c(O)c(=O)n2C)o1` [Raltegravir], the “Overall weighted mean CLR” value was 55.0 mL/min.

Regarding `CCN1CCC[C@H]1CNC(=O)c1c(OC)ccc(Br)c1OC` [Remoxipride], the “Overall weighted mean CLR” value was 35.6 mL/min.

On to `Oc1ccc(/C=C/c2cc(O)cc(O)c2)cc1` [Resveratrol], for which the “Overall weighted mean CLR” value is 16.6 mL/min.

Consider `CO[C@H]1/C=C/O[C@@]2(C)Oc3c(C)c(O)c4c(c3C2=O)C2=NC3(CCN(CC(C)C)CC3)NC2=C(NC(=O)/C(C)=C\C=C\[C@H](C)[C@H](O)[C@@H](C)[C@@H](O)[C@@H](C)[C@H](OC(C)=O)[C@@H]1C)C4=O` [Rifabutin], for which the “Overall weighted mean CLR” value was 58.4 mL/min.
